Experimental data from ChEMBL document CHEMBL1201862, “PubChem BioAssay data set” (2004).
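Interpolation was linear, between the two tested concentrations surrounding the appropriate level; five concentrations were tested over 48 hours in 96-well plates. GI50 marks 50% less growth.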 Calls of active or inactive are those of the source. Rule as the data show it: active = GI50 up to about 1.1 µM and inactive = higher.

Key:
Assay in all cases: DTP human tumour cell line panel, 48 h
DLD-1 = system: DLD-1
DMS-273 = system: DMS-273
EKVX = system: EKVX
HOP-18 = system: HOP-18
KM-20L2 = system: KM-20L2
KM12 = system: KM12
NCI/ADR-RES = system: NCI/ADR-RES
OVCAR-3 = system: OVCAR-3
RPMI-8226 = system: RPMI-8226
SF-539 = system: SF-539
SNB-78 = system: SNB-78
U-251 = system: U-251
XF498 = system: XF498
ACHN = system: ACHN
M14 = system: M14
Malme-3M = system: Malme-3M
TK-10 = system: TK-10
BT-549 = system: BT-549
MDA-MB-435 = system: MDA-MB-435
PC-3 = system: PC-3

SMILES	GI50 (DLD-1)	GI50 (DMS-273)	GI50 (EKVX)	GI50 (HOP-18)	GI50 (KM-20L2)	GI50 (KM12)	GI50 (NCI/ADR-RES)	GI50 (OVCAR-3)	GI50 (RPMI-8226)	GI50 (SF-539)	GI50 (SNB-78)	GI50 (U-251)	GI50 (XF498)	GI50 (ACHN)	GI50 (M14)	GI50 (Malme-3M)	GI50 (TK-10)	GI50 (BT-549)	GI50 (MDA-MB-435)	GI50 (PC-3)
COc1ccc(-c2nc3ccc([N+](=O)[O-])cc3c(=O)[nH]2)cc1	88.3 µM (inactive)	48.4 µM (inactive)	66.1 µM (inactive)	> 62.4 µM (inactive)	> 100 µM (inactive)	> 100 µM (inactive)	34 µM (inactive)	28.4 µM (inactive)	> 61.4 µM (inactive)	14.5 µM (inactive)	19.9 µM (inactive)	24.6 µM (inactive)	22.7 µM (inactive)	–	–	–	–	–	–	–
CCOC(=O)N1C=NC23C(c4ccccc4)C(c4ccccc4)C12C(=O)N(C)C(=O)N3C (configuration not stated)	> 100 µM (inactive)	> 100 µM (inactive)	> 100 µM (inactive)	1.52 µM (inactive)	> 100 µM (inactive)	> 100 µM (inactive)	–	> 100 µM (inactive)	44.2 µM (inactive)	–	–	> 100 µM (inactive)	> 100 µM (inactive)	> 100 µM (inactive)	> 100 µM (inactive)	> 100 µM (inactive)	> 100 µM (inactive)	–	–	–
O=C1CCC23CC(C=CC=C12)n1c(=O)n(-c2ccccc2)c(=O)n13 (configuration not stated)	66.2 µM (inactive)	71.4 µM (inactive)	> 100 µM (inactive)	> 100 µM (inactive)	–	> 100 µM (inactive)	38.5 µM (inactive)	> 100 µM (inactive)	> 100 µM (inactive)	> 100 µM (inactive)	> 59.2 µM (inactive)	–	> 100 µM (inactive)	–	–	> 100 µM (inactive)	–	–	–	–
CCCCNC(=O)N/C=C1\C(=O)Oc2ccccc2C1=O	–	76.6 µM (inactive)	> 100 µM (inactive)	–	> 100 µM (inactive)	–	–	–	55.7 µM (inactive)	39.4 µM (inactive)	19.9 µM (inactive)	–	14.1 µM (inactive)	24.5 µM (inactive)	41.7 µM (inactive)	–	79.4 µM (inactive)	–	–	–
C[C@@H]1CC[C@H]2[C@H]1[C@H]1[C@@H](CC[C@]2(C)N=C=S)C1(C)C	–	–	–	–	–	17 µM (inactive)	21.7 µM (inactive)	19.3 µM (inactive)	17.2 µM (inactive)	–	–	16.7 µM (inactive)	–	–	18.5 µM (inactive)	22.5 µM (inactive)	41.3 µM (inactive)	18.7 µM (inactive)	24.8 µM (inactive)	26.7 µM (inactive)
SC1=Nc2ccccc2-c2nc(-c3ccccc3)cc(-c3ccc(Br)cc3)c2C1	–	–	1.33 µM (inactive)	–	–	12 µM (inactive)	1.56 µM (inactive)	2.29 µM (inactive)	15.8 µM (inactive)	3.27 µM (inactive)	–	0.982 µM (active)	–	–	2.4 µM (inactive)	2.59 µM (inactive)	–	5.53 µM (inactive)	6.73 µM (inactive)	6.44 µM (inactive)
Cn1c(=O)c(-c2ccccc2)c(N=[N+]=[N-])c2ccccc21	–	–	–	–	–	37.8 µM (inactive)	28.4 µM (inactive)	44.2 µM (inactive)	–	54 µM (inactive)	–	34.8 µM (inactive)	–	30.8 µM (inactive)	63.2 µM (inactive)	30.9 µM (inactive)	> 100 µM (inactive)	44.2 µM (inactive)	45.4 µM (inactive)	22.3 µM (inactive)
Cc1cc2c(cc1C)[n+]([O-])c(C#N)c(Cl)[n+]2[O-]	–	–	6.59 µM (inactive)	–	–	–	15.8 µM (inactive)	7.78 µM (inactive)	12.3 µM (inactive)	14.3 µM (inactive)	–	13.8 µM (inactive)	–	10.5 µM (inactive)	–	12.9 µM (inactive)	14.4 µM (inactive)	15.6 µM (inactive)	21 µM (inactive)	13.2 µM (inactive)
CC1CC[P+](c2ccccc2)(c2ccccc2)c2c1ccc1ccccc21 (configuration not stated)	3.74 µM (inactive)	0.405 µM (active)	–	2.52 µM (inactive)	2.5 µM (inactive)	1.59 µM (inactive)	> 100 µM (inactive)	–	–	5.26 µM (inactive)	2.67 µM (inactive)	–	–	9.62 µM (inactive)	3.53 µM (inactive)	5.96 µM (inactive)	–	0.764 µM (active)	1.52 µM (inactive)	0.948 µM (active)
N#C[C@H](OC1OC(COC2OC(CO)C(O)C(O)C2O)C(O)C(O)C1O)c1ccccc1 (some centres not stated)	> 250 µM (inactive)	> 250 µM (inactive)	> 250 µM (inactive)	> 250 µM (inactive)	> 250 µM (inactive)	> 250 µM (inactive)	> 250 µM (inactive)	> 250 µM (inactive)	> 250 µM (inactive)	> 214 µM (inactive)	228 µM (inactive)	> 250 µM (inactive)	23.4 µM (inactive)	–	–	> 250 µM (inactive)	–	–	–	–
N#Cc1ccc(C2Oc3ccc(Cl)cc3C=C2[N+](=O)[O-])cc1 (configuration not stated)	–	–	1.75 µM (inactive)	–	–	1.9 µM (inactive)	–	1.63 µM (inactive)	0.334 µM (active)	1.87 µM (inactive)	–	1.74 µM (inactive)	–	1.67 µM (inactive)	1.36 µM (inactive)	2.11 µM (inactive)	1.85 µM (inactive)	0.581 µM (active)	1.73 µM (inactive)	1.38 µM (inactive)
CCCCCCCCCCCCCC(=O)OC1C(O)C(CO)OC(OC)C1NC(=O)N(CCCl)N=O (configuration not stated)	> 100 µM (inactive)	71.1 µM (inactive)	–	> 100 µM (inactive)	> 100 µM (inactive)	> 100 µM (inactive)	–	> 100 µM (inactive)	30.8 µM (inactive)	16.4 µM (inactive)	–	25.6 µM (inactive)	48.9 µM (inactive)	41.4 µM (inactive)	> 100 µM (inactive)	> 100 µM (inactive)	> 100 µM (inactive)	–	–	–
Cc1ccc(NC(=O)OCC(COc2ccc(Cl)cc2)OC(=O)Nc2ccc(C)cc2)cc1 (configuration not stated)	30.5 µM (inactive)	15.8 µM (inactive)	70.3 µM (inactive)	> 100 µM (inactive)	36.7 µM (inactive)	23 µM (inactive)	–	14.6 µM (inactive)	9.77 µM (inactive)	21.6 µM (inactive)	23.2 µM (inactive)	28.4 µM (inactive)	26.4 µM (inactive)	20.7 µM (inactive)	17.1 µM (inactive)	19 µM (inactive)	12.4 µM (inactive)	–	–	–
